What was measured:
SCPJU (seed) = assay: Assay for herbicidal activity, paddy pots: SCPJU; type: in vivo, Scirpus juncoides ROXB; settings: three weeks after application, 0 untreated control, 100 complete kill
Text: (§1) To evaluate herbicidal activity against the paddy weeds in the paddy rice (ORYSA: Oryza sativa L.), the herbicidal activity of the compounds of the invention was compared to that of the compound No.109 (compound A) disclosed in U.S. Pat. […] The paddy weeds tested were ECHOR (Echinochloa crus-galli var. oryzicola), SCPJU (Scirpus juncoides ROXB), MOOVA (Monochoria vaginalis […] (Cyperus serotinus ROTTB), and SAGPY (Sagittaria pygmaea MTQ). The vessels employed were plastic pots having an area of 140 cm^2 and filled with a sandy loam soil containing 1.2% organic matter (pH 6).

SAGPY (tuber) = assay: Assay for herbicidal activity, paddy pots: SAGPY; type: in vivo, Sagittaria pygmaea MTQ; settings: three weeks after application, 0 untreated control, 100 complete kill
Text: as §1

CYPSE (tuber) = assay: Assay for herbicidal activity, paddy pots: CYPSE; type: in vivo, Cyperus serotinus ROTTB; settings: three weeks after application, 0 untreated control, 100 complete kill
Text: as §1

ECHOR (seed) = assay: Assay for herbicidal activity, paddy pots: ECHOR; type: in vivo, Echinochloa crus-galli var. oryzicola; settings: for ECHOR (seed) herbicidal activity, visual percentage grading: three weeks after application, 0 untreated control, 100 complete kill
Text: as §1

MOOVA (seed) = assay: Assay for herbicidal activity, paddy pots: MOOVA; type: in vivo, Monochoria vaginalis PRESL; settings: three weeks after application, 0 untreated control, 100 complete kill
Text: as §1

| SMILES | SCPJU (seed) herbicidal activity, visual percentage grading (SCPJU (seed); 0.016 kg/ha) [%] | SCPJU (seed) herbicidal activity, visual percentage grading (SCPJU (seed); 0.063 kg/ha) [%] | SCPJU (seed) herbicidal activity, visual percentage grading (SCPJU (seed); 0.250 kg/ha) [%] | SCPJU (seed) herbicidal activity, visual percentage grading (SCPJU (seed); 1.000 kg/ha) [%] | SCPJU (seed) herbicidal activity, visual percentage grading (SCPJU (seed); 4.000 kg/ha) [%] | SAGPY (tuber) herbicidal activity, visual percentage grading (SAGPY (tuber); 0.016 kg/ha) [%] | SAGPY (tuber) herbicidal activity, visual percentage grading (SAGPY (tuber); 0.063 kg/ha) [%] | SAGPY (tuber) herbicidal activity, visual percentage grading (SAGPY (tuber); 0.250 kg/ha) [%] | SAGPY (tuber) herbicidal activity, visual percentage grading (SAGPY (tuber); 1.000 kg/ha) [%] | SAGPY (tuber) herbicidal activity, visual percentage grading (SAGPY (tuber); 4.000 kg/ha) [%] | CYPSE (tuber) herbicidal activity, visual percentage grading (CYPSE (tuber); 0.016 kg/ha) [%] | CYPSE (tuber) herbicidal activity, visual percentage grading (CYPSE (tuber); 0.063 kg/ha) [%] | CYPSE (tuber) herbicidal activity, visual percentage grading (CYPSE (tuber); 0.250 kg/ha) [%] | CYPSE (tuber) herbicidal activity, visual percentage grading (CYPSE (tuber); 1.000 kg/ha) [%] | CYPSE (tuber) herbicidal activity, visual percentage grading (CYPSE (tuber); 4.000 kg/ha) [%] | ECHOR (seed) herbicidal activity, visual percentage grading (ECHOR (seed); 0.016 kg/ha) [%] | ECHOR (seed) herbicidal activity, visual percentage grading (ECHOR (seed); 0.063 kg/ha) [%] | ECHOR (seed) herbicidal activity, visual percentage grading (ECHOR (seed); 0.250 kg/ha) [%] | ECHOR (seed) herbicidal activity, visual percentage grading (ECHOR (seed); 1.000 kg/ha) [%] | ECHOR (seed) herbicidal activity, visual percentage grading (ECHOR (seed); 4.000 kg/ha) [%] | further results |
| --- | --- | --- | --- | --- | --- | --- | --- | --- | --- | --- | --- | --- | --- | --- | --- | --- | --- | --- | --- | --- | --- |
| Cc1ccc(C2=NOC(C)(COCc3cccc(F)c3)C2)s1 (stereo not shown) [EXAMPLE 3, 5-(3-fluorobenzyl)oxymethyl-5-methyl-3-(2-methylthiophene-5-yl)-1,2-isoxazoline] | 0 | 20 | 40 | 60 | 100 | 0 | 0 | 0 | 50 | 40 | 0 | 40 | 90 | 100 | 100 | 20 | 55 | 100 | 100 | 100 | MOOVA (seed) herbicidal activity, visual percentage grading (MOOVA (seed); 0.016 kg/ha): 20%; MOOVA (seed) herbicidal activity, visual percentage grading (MOOVA (seed); 0.063 kg/ha): 50%; MOOVA (seed) herbicidal activity, visual percentage grading (MOOVA (seed); 0.250 kg/ha): 60%; MOOVA (seed) herbicidal activity, visual percentage grading (MOOVA (seed); 1.000 kg/ha): 80%; MOOVA (seed) herbicidal activity, visual percentage grading (MOOVA (seed); 4.000 kg/ha): 100% |
| Cc1ccsc1C1=NOC(C)(COCc2ccccc2)C1 (stereo not shown) [EXAMPLE 5, 5-benzyloxymethyl-5-methyl-3-(4-methylthiophene-5-yl)-1,2-isoxazoline] | 0 | 10 | 30 | 60 | 100 | 0 | 0 | 20 | 50 | 70 | 0 | 0 | 30 | 100 | 100 | 0 | 30 | 100 | 100 | 100 | MOOVA (seed) herbicidal activity, visual percentage grading (MOOVA (seed); 0.016 kg/ha): 0%; MOOVA (seed) herbicidal activity, visual percentage grading (MOOVA (seed); 0.063 kg/ha): 10%; MOOVA (seed) herbicidal activity, visual percentage grading (MOOVA (seed); 0.250 kg/ha): 80%; MOOVA (seed) herbicidal activity, visual percentage grading (MOOVA (seed); 1.000 kg/ha): 90%; MOOVA (seed) herbicidal activity, visual percentage grading (MOOVA (seed); 4.000 kg/ha): 100% |
| Cc1cc(C)c(C2=NOC(C)(COCc3ccccc3F)C2)s1 (stereo not shown) [EXAMPLE 13, 5-(2-fluorobenzyl)oxymethyl-5-methyl-3-(2,4-dimethylthiophene-5-yl)-1,2-isoxazoline] | 30 | 30 | 70 | 90 | 100 | 0 | 0 | 0 | 0 | 30 | 0 | 0 | 90 | 100 | 100 | 50 | 70 | 100 | 100 | 100 | MOOVA (seed) herbicidal activity, visual percentage grading (MOOVA (seed); 0.016 kg/ha): 50%; MOOVA (seed) herbicidal activity, visual percentage grading (MOOVA (seed); 0.063 kg/ha): 70%; MOOVA (seed) herbicidal activity, visual percentage grading (MOOVA (seed); 0.250 kg/ha): 80%; MOOVA (seed) herbicidal activity, visual percentage grading (MOOVA (seed); 1.000 kg/ha): 90%; MOOVA (seed) herbicidal activity, visual percentage grading (MOOVA (seed); 4.000 kg/ha): 100% |
| Cc1cc(C)c(C2=NOC(C)(COCc3c(F)cccc3F)C2)s1 (stereo not shown) [EXAMPLE 15, 5-(2,6-difluorobenzyl)oxymethyl-5-methyl-3-(2,4-dimethylthiophene-5-yl)-1,2-isoxazoline] | 20 | 50 | 100 | 100 | 100 | 0 | 0 | 20 | 40 | 70 | 0 | 0 | 70 | 100 | 100 | 40 | 100 | 100 | 100 | 100 | MOOVA (seed) herbicidal activity, visual percentage grading (MOOVA (seed); 0.016 kg/ha): 90%; MOOVA (seed) herbicidal activity, visual percentage grading (MOOVA (seed); 0.063 kg/ha): 100%; MOOVA (seed) herbicidal activity, visual percentage grading (MOOVA (seed); 0.250 kg/ha): 100%; MOOVA (seed) herbicidal activity, visual percentage grading (MOOVA (seed); 1.000 kg/ha): 100%; MOOVA (seed) herbicidal activity, visual percentage grading (MOOVA (seed); 4.000 kg/ha): 100% |
| CC1(COCc2c(F)cccc2F)CC(c2sccc2Br)=NO1 (stereo not shown) [EXAMPLE 19, 5-(2,6-difluorobenzyl)oxymethyl-5-methyl-3-(4-bromothiophene-5-yl)-1,2-isoxazoline] | 0 | 100 | 100 | 100 | 100 | 0 | 0 | 0 | 20 | 30 | 30 | 90 | 90 | 100 | 100 | 100 | 100 | 100 | 100 | 100 | herbicidal activity on ECHOR, in words (ECHOR (seed); low dose of 0.016 Kg/ha): completely controls the growth of ECHOR; MOOVA (seed) herbicidal activity, visual percentage grading (MOOVA (seed); 0.016 kg/ha): 20%; MOOVA (seed) herbicidal activity, visual percentage grading (MOOVA (seed); 0.063 kg/ha): 95%; MOOVA (seed) herbicidal activity, visual percentage grading (MOOVA (seed); 0.250 kg/ha): 100%; MOOVA (seed) herbicidal activity, visual percentage grading (MOOVA (seed); 1.000 kg/ha): 100%; MOOVA (seed) herbicidal activity, visual percentage grading (MOOVA (seed); 4.000 kg/ha): 100% |
| COc1ccsc1C1=NOC(C)(COCc2c(F)cccc2F)C1 (stereo not shown) [EXAMPLE 21, 5-(2,6-difluorobenzyl)oxymethyl-5-methyl-3-(4-methoxythiophene-5-yl)-1,2-isoxazoline] | 0 | 100 | 100 | 100 | 100 | 0 | 0 | 0 | 0 | 0 | 0 | 40 | 60 | 80 | 100 | 0 | 100 | 100 | 100 | 100 | MOOVA (seed) herbicidal activity, visual percentage grading (MOOVA (seed); 0.016 kg/ha): 0%; MOOVA (seed) herbicidal activity, visual percentage grading (MOOVA (seed); 0.063 kg/ha): 100%; MOOVA (seed) herbicidal activity, visual percentage grading (MOOVA (seed); 0.250 kg/ha): 100%; MOOVA (seed) herbicidal activity, visual percentage grading (MOOVA (seed); 1.000 kg/ha): 100%; MOOVA (seed) herbicidal activity, visual percentage grading (MOOVA (seed); 4.000 kg/ha): 100% |

Reference: patent US6838416B2, “Herbicidal 5-benzyloxymethyl-1,2-isoxazoline derivatives” (Korea Research Institute of Chemical Technology, priority 2000, dated 2005)
